A short description of the data set: Adriamycin elution from bone cement in vitro. The data set is classed as physicochemical. Particulars: one or two vials (10 mg adriamycin each) added to a packet of PMMA bone cement (22.5 g powder + 9 ml liquid monomer). On the procedure:
[…] […] They were mixed thoroughly to ensure there are no large adriamycin flakes. […] One gram of this composite elutes 340 micrograms of adriamycin within 24 hours in vitro. The prepared bone cement drug powder was then loaded in sterile syringes (2 g/syringe). To prepare the bone cement putty for implantation and in situ polymerization, 1 ml of Confidence™ monomer was added to this powder and mixed thoroughly 5 minutes prior to implantation.

Each structure is given as a SMILES string.

Regarding `COc1cccc2c1C(=O)c1c(O)c3c(c(O)c1C2=O)C[C@@](O)(C(=O)CO)C[C@@H]3O[C@H]1C[C@H](N)[C@H](O)[C@H](C)O1` [adriamycin], the “elution of adriamycin from PMMA bone cement without filler” value is “negligible elution”.

Values taken from US20110111061A1, “Compositions and Methods for the Treatment of Skeletal Metastatic Lesions and Fractures” (priority 2008, published 2011).
